Where “and” joins values, the source holds several entries; their conditions need not be identical. Identical values can stand only once. Numbers after ± are expanded uncertainties.
Assay: refractive index (other wavelength) (dimensionless); xn = mol fraction of the nth substance listed

CCCCCCCC[n+]1ccn(C)c1.F[B-](F)(F)F [1-methyl-3-octylimidazolium tetrafluoroborate] + CCCCCCCO
Minimum deviation
Conditions	refractive index
298.87 K, Liquid mixture 1, Wavelength=623.8 nm, x1 = 0.01	1.4213 ± 0.0003
298.87 K, Liquid mixture 2, Wavelength=623.8 nm, x1 = 0.382	1.4264 ± 0.0003
299.67 K, Liquid mixture 1, Wavelength=623.8 nm, x1 = 0.011	1.421 ± 0.0003
299.67 K, Liquid mixture 2, Wavelength=623.8 nm, x1 = 0.371	1.426 ± 0.0003
300.45 K, Liquid mixture 1, Wavelength=623.8 nm, x1 = 0.011	1.4207 ± 0.0003
300.45 K, Liquid mixture 2, Wavelength=623.8 nm, x1 = 0.359	1.4256 ± 0.0003
301.2 K, Liquid mixture 1, Wavelength=623.8 nm, x1 = 0.016	1.4205 ± 0.0003
301.2 K, Liquid mixture 2, Wavelength=623.8 nm, x1 = 0.347	1.4252 ± 0.0003
301.93 K, Liquid mixture 1, Wavelength=623.8 nm, x1 = 0.015	1.4202 ± 0.0003
301.93 K, Liquid mixture 2, Wavelength=623.8 nm, x1 = 0.335	1.4248 ± 0.0003
302.63 K, Liquid mixture 1, Wavelength=623.8 nm, x1 = 0.019	1.42 ± 0.0003
302.63 K, Liquid mixture 2, Wavelength=623.8 nm, x1 = 0.33	1.4245 ± 0.0003
303.31 K, Liquid mixture 1, Wavelength=623.8 nm, x1 = 0.023	1.4198 ± 0.0003
303.31 K, Liquid mixture 2, Wavelength=623.8 nm, x1 = 0.317	1.4241 ± 0.0003
303.94 K, Liquid mixture 1, Wavelength=623.8 nm, x1 = 0.025	1.4196 ± 0.0003
303.94 K, Liquid mixture 2, Wavelength=623.8 nm, x1 = 0.302	1.4237 ± 0.0003
304.5 K, Liquid mixture 1, Wavelength=623.8 nm, x1 = 0.027	1.4194 ± 0.0003
304.5 K, Liquid mixture 2, Wavelength=623.8 nm, x1 = 0.294	1.4234 ± 0.0003
305 K, Liquid mixture 1, Wavelength=623.8 nm, x1 = 0.031	1.4193 ± 0.0003
305 K, Liquid mixture 2, Wavelength=623.8 nm, x1 = 0.284	1.4231 ± 0.0003
305.41 K, Liquid mixture 1, Wavelength=623.8 nm, x1 = 0.035	1.4192 ± 0.0003
305.41 K, Liquid mixture 2, Wavelength=623.8 nm, x1 = 0.272	1.4228 ± 0.0003
305.78 K, Liquid mixture 1, Wavelength=623.8 nm, x1 = 0.037	1.4191 ± 0.0003
305.78 K, Liquid mixture 2, Wavelength=623.8 nm, x1 = 0.259	1.4225 ± 0.0003
306.09 K, Liquid mixture 1, Wavelength=623.8 nm, x1 = 0.038	1.419 ± 0.0003
306.09 K, Liquid mixture 2, Wavelength=623.8 nm, x1 = 0.253	1.4223 ± 0.0003
306.34 K, Liquid mixture 1, Wavelength=623.8 nm, x1 = 0.043	1.419 ± 0.0003
306.34 K, Liquid mixture 2, Wavelength=623.8 nm, x1 = 0.244	1.4221 ± 0.0003
306.54 K, Liquid mixture 1, Wavelength=623.8 nm, x1 = 0.048	1.419 ± 0.0003
306.54 K, Liquid mixture 2, Wavelength=623.8 nm, x1 = 0.242	1.422 ± 0.0003
306.7 K, Liquid mixture 1, Wavelength=623.8 nm, x1 = 0.051	1.419 ± 0.0003
306.7 K, Liquid mixture 2, Wavelength=623.8 nm, x1 = 0.232	1.4218 ± 0.0003
306.83 K, Liquid mixture 1, Wavelength=623.8 nm, x1 = 0.06	1.4191 ± 0.0003
306.83 K, Liquid mixture 2, Wavelength=623.8 nm, x1 = 0.228	1.4217 ± 0.0003
306.93 K, Liquid mixture 1, Wavelength=623.8 nm, x1 = 0.062	1.4191 ± 0.0003
306.93 K, Liquid mixture 2, Wavelength=623.8 nm, x1 = 0.224	1.4216 ± 0.0003
307.02 K, Liquid mixture 1, Wavelength=623.8 nm, x1 = 0.064	1.4191 ± 0.0003
307.02 K, Liquid mixture 2, Wavelength=623.8 nm, x1 = 0.219	1.4215 ± 0.0003
307.1 K, Liquid mixture 1, Wavelength=623.8 nm, x1 = 0.071	1.4192 ± 0.0003
307.1 K, Liquid mixture 2, Wavelength=623.8 nm, x1 = 0.221	1.4215 ± 0.0003
307.16 K, Liquid mixture 1, Wavelength=623.8 nm, x1 = 0.073	1.4192 ± 0.0003
307.16 K, Liquid mixture 2, Wavelength=623.8 nm, x1 = 0.215	1.4214 ± 0.0003
307.21 K, Liquid mixture 1, Wavelength=623.8 nm, x1 = 0.08	1.4193 ± 0.0003
307.21 K, Liquid mixture 2, Wavelength=623.8 nm, x1 = 0.217	1.4214 ± 0.0003
307.26 K, Liquid mixture 1, Wavelength=623.8 nm, x1 = 0.081	1.4193 ± 0.0003
307.26 K, Liquid mixture 2, Wavelength=623.8 nm, x1 = 0.211	1.4213 ± 0.0003
307.3 K, Liquid mixture 1, Wavelength=623.8 nm, x1 = 0.081	1.4193 ± 0.0003
307.3 K, Liquid mixture 2, Wavelength=623.8 nm, x1 = 0.204	1.4212 ± 0.0003
307.33 K, Liquid mixture 1, Wavelength=623.8 nm, x1 = 0.082	1.4193 ± 0.0003
307.33 K, Liquid mixture 2, Wavelength=623.8 nm, x1 = 0.198	1.4211 ± 0.0003
307.36 K, Liquid mixture 1, Wavelength=623.8 nm, x1 = 0.089	1.4194 ± 0.0003
307.36 K, Liquid mixture 2, Wavelength=623.8 nm, x1 = 0.199	1.4211 ± 0.0003
307.39 K, Liquid mixture 1, Wavelength=623.8 nm, x1 = 0.089	1.4194 ± 0.0003
307.39 K, Liquid mixture 2, Wavelength=623.8 nm, x1 = 0.193	1.421 ± 0.0003
307.41 K, Liquid mixture 1, Wavelength=623.8 nm, x1 = 0.09	1.4194 ± 0.0003
307.41 K, Liquid mixture 2, Wavelength=623.8 nm, x1 = 0.186	1.4209 ± 0.0003
307.44 K, Liquid mixture 1, Wavelength=623.8 nm, x1 = 0.096	1.4195 ± 0.0003
307.44 K, Liquid mixture 2, Wavelength=623.8 nm, x1 = 0.187	1.4209 ± 0.0003
307.45 K, Liquid mixture 1, Wavelength=623.8 nm, x1 = 0.097	1.4195 ± 0.0003
307.45 K, Liquid mixture 2, Wavelength=623.8 nm, x1 = 0.18	1.4208 ± 0.0003
307.47 K, Liquid mixture 1, Wavelength=623.8 nm, x1 = 0.097	1.4195 ± 0.0003
307.47 K, Liquid mixture 2, Wavelength=623.8 nm, x1 = 0.181	1.4208 ± 0.0003
307.48 K, Liquid mixture 1, Wavelength=623.8 nm, x1 = 0.097	1.4195 ± 0.0003
307.48 K, Liquid mixture 2, Wavelength=623.8 nm, x1 = 0.174	1.4207 ± 0.0003
307.49 K, Liquid mixture 1, Wavelength=623.8 nm, x1 = 0.104	1.4196 ± 0.0003
307.49 K, Liquid mixture 2, Wavelength=623.8 nm, x1 = 0.175	1.4207 ± 0.0003
307.5 K, Liquid mixture 1, Wavelength=623.8 nm, x1 = 0.104	1.4196 ± 0.0003
307.5 K, Liquid mixture 2, Wavelength=623.8 nm, x1 = 0.168	1.4206 ± 0.0003
307.51 K, Liquid mixture 1, Wavelength=623.8 nm, x1 = 0.104	1.4196 ± 0.0003
307.51 K, Liquid mixture 2, Wavelength=623.8 nm, x1 = 0.168	1.4206 ± 0.0003
307.52 K, Liquid mixture 1, Wavelength=623.8 nm, x1 = 0.104	1.4196 ± 0.0003
307.52 K, Liquid mixture 1, Wavelength=623.8 nm, x1 = 0.111	1.4197 ± 0.0003
307.52 K, Liquid mixture 2, Wavelength=623.8 nm, x1 = 0.155	1.4204 ± 0.0003
307.52 K, Liquid mixture 2, Wavelength=623.8 nm, x1 = 0.162	1.4205 ± 0.0003 and 1.4205 ± 0.0005
307.53 K, Liquid mixture 1, Wavelength=623.8 nm, x1 = 0.111	1.4197 ± 0.0003
307.53 K, Liquid mixture 1, Wavelength=623.8 nm, x1 = 0.117	1.4198 ± 0.0003 and 1.4198 ± 0.0004
307.53 K, Liquid mixture 2, Wavelength=623.8 nm, x1 = 0.149	1.4203 ± 0.0003
307.53 K, Liquid mixture 2, Wavelength=623.8 nm, x1 = 0.155	1.4204 ± 0.0003

85 kPa, Liquid, Wavelength=632.8 nm, Minimum Deviation
Conditions	refractive index
301.61 K, x1 = 0.7	1.4285 ± 0.0003
302.37 K, x1 = 0.8	1.429 ± 0.0003
302.37 K, x1 = 0.898	1.4299 ± 0.0003
303.54 K, x1 = 0.7	1.4279 ± 0.0003
303.94 K, x1 = 0.898	1.4295 ± 0.0003
303.98 K, x1 = 0.8	1.4286 ± 0.0003
305.36 K, x1 = 0.7	1.4274 ± 0.0003
305.43 K, x1 = 0.898	1.4291 ± 0.0003
305.58 K, x1 = 0.5	1.4254 ± 0.0003
305.64 K, x1 = 0.8	1.4282 ± 0.0003
306.75 K, x1 = 0.6	1.4262 ± 0.0003
307.04 K, x1 = 0.7	1.4269 ± 0.0003
307.1 K, x1 = 0.8	1.4278 ± 0.0003
307.12 K, x1 = 0.898	1.4286 ± 0.0003
307.21 K, x1 = 0.5	1.4249 ± 0.0003
307.74 K, x1 = 0.2	1.421 ± 0.0003
307.74 K, x1 = 0.3	1.4225 ± 0.0003
308 K, x1 = 0.399	1.4235 ± 0.0003
308.01 K, x1 = 0.1	1.4195 ± 0.0003
308.5 K, x1 = 0.7	1.4265 ± 0.0003
308.52 K, x1 = 0.6	1.4256 ± 0.0003
308.6 K, x1 = 0.5	1.4245 ± 0.0003
308.63 K, x1 = 0.8	1.4274 ± 0.0003
309.13 K, x1 = 0.3	1.422 ± 0.001
309.27 K, x1 = 0.898	1.428 ± 0.0003
309.33 K, x1 = 0.2	1.4204 ± 0.0003
309.52 K, x1 = 0.1	1.4189 ± 0.0003
309.56 K, x1 = 0.399	1.423 ± 0.001
310.16 K, x1 = 0.5	1.424 ± 0.0003
310.34 K, x1 = 0.7	1.426 ± 0.0003
310.34 K, x1 = 0.8	1.4269 ± 0.0003
310.75 K, x1 = 0.3	1.4214 ± 0.0003
310.81 K, x1 = 0.6	1.4249 ± 0.0003
310.88 K, x1 = 0.2	1.4199 ± 0.0003
311.04 K, x1 = 0.1	1.4183 ± 0.0003
311.13 K, x1 = 0.399	1.4225 ± 0.0003
311.28 K, x1 = 0.898	1.4274 ± 0.0003
311.69 K, x1 = 0.5	1.4235 ± 0.0003
312.29 K, x1 = 0.3	1.4209 ± 0.0003
312.54 K, x1 = 0.2	1.4193 ± 0.0003
312.58 K, x1 = 0.1	1.4178 ± 0.0003
312.73 K, x1 = 0.6	1.4243 ± 0.0003
313.03 K, x1 = 0.399	1.4219 ± 0.0003
313.17 K, x1 = 0.5	1.4231 ± 0.0003
313.86 K, x1 = 0.3	1.4204 ± 0.0003
314.02 K, x1 = 0.2	1.4188 ± 0.0003
314.06 K, x1 = 0.1	1.4172 ± 0.0003
314.31 K, x1 = 0.399	1.4214 ± 0.0003
314.64 K, x1 = 0.6	1.4237 ± 0.0003
315.45 K, x1 = 0.3	1.4198 ± 0.0003
315.63 K, x1 = 0.1	1.4166 ± 0.0003
315.63 K, x1 = 0.2	1.4183 ± 0.0003
316.32 K, x1 = 0.399	1.4208 ± 0.0003
316.32 K, x1 = 0.6	1.4232 ± 0.0003

From the NIST ThermoML archive (doi:10.1016/j.fluid.2015.03.015)
